Assay results from paper PMC8667902 (Journal of Enzyme Inhibition and Medicinal Chemistry, 2021).
Values joined by “and” are separate entries in the source; they are usually repeats but may differ in a detail not shown here. Identical values can stand only once. Like-named read-outs stand apart in the source and are kept apart here.

What was measured:
ratBuChE = ratBuChE (Rattus norvegicus, UniProt Q9JKC1); assay: Ellman's method, BuChE from rat serum; format: biochemical
eeAChE = eeAChE (Electrophorus electricus, UniProt O42275); assay: Ellman's method, electric eel AChE; format: biochemical
eeAChE, sequence (O42275 24-633): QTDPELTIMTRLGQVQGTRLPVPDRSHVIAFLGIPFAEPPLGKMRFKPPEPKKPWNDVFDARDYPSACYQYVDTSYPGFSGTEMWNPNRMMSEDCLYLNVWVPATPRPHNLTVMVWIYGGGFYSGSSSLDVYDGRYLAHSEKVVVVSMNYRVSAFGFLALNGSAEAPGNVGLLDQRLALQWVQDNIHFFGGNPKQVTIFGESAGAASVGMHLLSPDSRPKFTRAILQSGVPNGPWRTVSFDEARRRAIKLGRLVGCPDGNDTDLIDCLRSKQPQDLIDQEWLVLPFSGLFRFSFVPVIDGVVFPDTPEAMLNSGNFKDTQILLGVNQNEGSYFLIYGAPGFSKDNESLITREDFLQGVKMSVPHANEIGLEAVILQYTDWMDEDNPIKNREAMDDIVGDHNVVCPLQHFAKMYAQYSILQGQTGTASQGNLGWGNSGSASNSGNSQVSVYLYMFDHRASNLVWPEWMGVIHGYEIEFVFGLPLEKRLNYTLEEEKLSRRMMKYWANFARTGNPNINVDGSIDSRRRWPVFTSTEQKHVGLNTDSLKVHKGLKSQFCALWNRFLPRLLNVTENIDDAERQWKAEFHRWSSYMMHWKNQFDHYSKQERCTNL

huMAO-A = biological target: T1, huMAO-A (Homo sapiens, UniProt P21397); assay: huMAO-A inhibition, fluorescence method; format: biochemical; details: for inhibition at 10 µM: read-out: MAO-A percent inhibition rate
T1 sequence (P21397 1-527): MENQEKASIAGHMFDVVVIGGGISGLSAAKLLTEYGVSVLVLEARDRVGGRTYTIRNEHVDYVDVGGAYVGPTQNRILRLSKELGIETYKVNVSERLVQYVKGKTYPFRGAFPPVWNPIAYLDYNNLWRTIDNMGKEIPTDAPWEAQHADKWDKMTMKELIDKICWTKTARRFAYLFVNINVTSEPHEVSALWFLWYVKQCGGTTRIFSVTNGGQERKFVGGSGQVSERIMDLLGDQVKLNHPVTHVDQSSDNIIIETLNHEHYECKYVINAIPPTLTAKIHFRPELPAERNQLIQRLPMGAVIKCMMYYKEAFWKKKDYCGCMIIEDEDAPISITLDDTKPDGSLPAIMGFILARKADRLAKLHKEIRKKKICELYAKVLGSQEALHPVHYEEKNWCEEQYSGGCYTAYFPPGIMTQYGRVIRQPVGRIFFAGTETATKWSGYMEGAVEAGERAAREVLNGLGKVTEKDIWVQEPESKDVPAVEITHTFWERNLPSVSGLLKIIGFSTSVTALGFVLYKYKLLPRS

Aβ1–42 [1] = biological target: T2, Aβ1–42 (Homo sapiens, UniProt P05067); assay: Inhibition of Cu2+-induced Aβ1–42 aggregation; format: biochemical; details: read-out: Inhibition of Aβ1–42 aggregation (%) Cu^2+-induced
T2 sequence (P05067 672-713): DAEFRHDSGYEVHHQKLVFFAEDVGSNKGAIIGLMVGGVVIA

Aβ1–42 [2] = biological target: T2, Aβ1–42; assay: Inhibition of self-induced Aβ1–42 aggregation; format: biochemical; details: ThT assay; for inhibition at 25 µM: read-out: Inhibition of Aβ1–42 aggregation (%) Self-induced, 25 μM
ratAChE = biological target: T3, ratAChE (Rattus norvegicus, UniProt P37136); assay: Ellman's method, AChE from rat cortex homogenate; format: biochemical; details: for SI = Selectivity index = IC50 (BuChE)/IC50 (AChE): ratBuChE over rat AChE
T3 sequence (P37136 32-614): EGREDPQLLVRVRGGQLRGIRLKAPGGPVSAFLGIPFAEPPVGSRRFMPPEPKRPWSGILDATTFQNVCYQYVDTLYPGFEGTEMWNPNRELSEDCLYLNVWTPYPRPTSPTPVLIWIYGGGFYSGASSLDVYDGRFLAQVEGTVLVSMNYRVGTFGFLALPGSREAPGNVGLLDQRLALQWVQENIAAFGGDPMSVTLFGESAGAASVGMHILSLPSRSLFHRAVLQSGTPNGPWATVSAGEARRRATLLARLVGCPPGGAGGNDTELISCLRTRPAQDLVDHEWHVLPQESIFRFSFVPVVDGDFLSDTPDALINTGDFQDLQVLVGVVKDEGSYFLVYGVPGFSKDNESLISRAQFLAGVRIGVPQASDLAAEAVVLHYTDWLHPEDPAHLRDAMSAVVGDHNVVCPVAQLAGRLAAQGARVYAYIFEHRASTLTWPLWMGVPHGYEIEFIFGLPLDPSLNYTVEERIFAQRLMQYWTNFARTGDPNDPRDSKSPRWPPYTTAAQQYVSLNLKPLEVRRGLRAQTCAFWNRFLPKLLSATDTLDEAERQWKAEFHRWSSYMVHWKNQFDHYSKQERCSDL

[3] = Oxygen Radicals Absorbance Capacity by Fluorescence; details: for ORAC: Trolox as reference; for ORAC-FL value: Trolox equivalents
Aβ1–42 fibrils [4] = biological target: T4, Aβ1–42 fibrils (Homo sapiens, UniProt P05067); assay: Disaggregation of Cu2+-induced Aβ1–42 aggregation; format: biochemical
T4 sequence (P05067 672-713): as the sequence (P05067 672-713) above

huMAO-B = biological target: T5, huMAO-B (Homo sapiens, UniProt P27338); assay: biochemical
T5 sequence (P27338 1-520): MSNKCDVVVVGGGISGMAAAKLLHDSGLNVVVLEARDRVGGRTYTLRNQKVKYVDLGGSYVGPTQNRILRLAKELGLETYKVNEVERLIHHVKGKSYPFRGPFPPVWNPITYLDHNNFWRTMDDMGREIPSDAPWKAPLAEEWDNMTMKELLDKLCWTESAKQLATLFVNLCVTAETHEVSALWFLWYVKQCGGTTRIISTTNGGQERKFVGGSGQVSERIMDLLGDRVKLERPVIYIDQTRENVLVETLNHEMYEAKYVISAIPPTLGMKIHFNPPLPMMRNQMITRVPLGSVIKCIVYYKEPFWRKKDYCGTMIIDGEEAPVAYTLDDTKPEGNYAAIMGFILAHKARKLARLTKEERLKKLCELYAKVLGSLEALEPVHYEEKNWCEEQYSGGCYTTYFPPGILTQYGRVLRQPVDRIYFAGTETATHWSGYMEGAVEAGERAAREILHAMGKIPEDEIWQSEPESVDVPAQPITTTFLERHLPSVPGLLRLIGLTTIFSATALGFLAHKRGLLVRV

Aβ1–42 fibrils [5] = biological target: T4, Aβ1–42 fibrils; assay: Disaggregation of self-induced Aβ1–42 aggregation; format: biochemical; details: 25 μM; ThT assay

ratBuChE, sequence (Q9JKC1 24-597): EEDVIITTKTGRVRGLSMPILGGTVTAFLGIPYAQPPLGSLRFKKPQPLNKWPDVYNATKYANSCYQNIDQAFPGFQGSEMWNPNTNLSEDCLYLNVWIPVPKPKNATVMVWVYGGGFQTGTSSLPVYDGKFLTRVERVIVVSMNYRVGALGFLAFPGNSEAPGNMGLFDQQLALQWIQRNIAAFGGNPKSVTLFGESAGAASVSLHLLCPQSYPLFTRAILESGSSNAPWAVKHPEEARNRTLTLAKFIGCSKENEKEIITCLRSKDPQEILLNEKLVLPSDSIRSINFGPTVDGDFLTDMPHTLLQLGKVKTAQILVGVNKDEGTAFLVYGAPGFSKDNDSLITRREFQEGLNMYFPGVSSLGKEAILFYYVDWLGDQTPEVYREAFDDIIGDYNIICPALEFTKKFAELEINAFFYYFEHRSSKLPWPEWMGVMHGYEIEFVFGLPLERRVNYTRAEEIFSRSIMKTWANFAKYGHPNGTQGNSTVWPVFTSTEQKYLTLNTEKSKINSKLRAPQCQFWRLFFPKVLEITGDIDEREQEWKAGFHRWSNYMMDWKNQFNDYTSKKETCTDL

Disaggregation of Aβ1–42 aggregation (%) Cu^2+-induced (Aβ1–42 fibrils [4]) [%]	SMILES	IC50 (ratBuChE) [µM]	IC50 (eeAChE) [µM]	inhibition at 10 µM (huMAO-A) [%]	inhibition at 25 µM (Aβ1–42 [1]) [%]	inhibition at 25 µM (Aβ1–42 [2]) [%]	IC50 (ratAChE) [µM]	ORAC [3]	ORAC-FL value [3] [eq]	Disaggregation of Aβ1–42 aggregation (%) Cu^2+-induced (Aβ1–42 fibrils [4]; 25 μM, ThT assay)	IC50 (huMAO-B) [µM]	SI = Selectivity index = IC50 (BuChE)/IC50 (AChE) (ratAChE)	Disaggregation of Aβ1–42 aggregation (%) Self-induced (Aβ1–42 fibrils [5]) [%]	IC50 (huMAO-A) [µM]	SI = selectivity index = IC50 (hMAO-A)/IC50 (hMAO-B) (huMAO-B)	inhibition at 10 µM (huMAO-B; read-out: MAO-B percent inhibition rate) [%]	Inhibition of Aβ1–42 aggregation (%) Self-induced (Aβ1–42 [2]; 25 μM)
	COc1cc(O)c(C(=O)/C=C/c2ccc(O)cc2)c(OC)c1OC [Compound 8, (E)-1-(6-hydroxy-2,3,4-trimethoxyphenyl)-3-(4-hydroxyphenyl)-2-propen-1-one]	> 500	> 500	22.9	33.2 ± 0.01	23.1 ± 0.01	> 500	5.4 ± 0.01 μM of Trolox equivalent/μM of compounds	5.4								
	COc1ccccc1CN(C)CCCOc1ccc(/C=C/C(=O)c2c(O)cc(OC)c(OC)c2OC)cc1 [Compound 9a, (E)-1-(6-Hydroxy-2,3,4-trimethoxyphenyl)-3-(4-(3-((2-methoxybenzyl)(methyl)amino)propoxy)phenyl)prop-2-en-1-one]	> 500	1.46 ± 0.02	13.9	66.2 ± 0.02	57.4 ± 0.01	3.12 ± 0.02	1.01 ± 0.01 μM of Trolox equivalent/μM of compounds		54.2 ± 0.02%	3.8 ± 0.02	>160.3	26.8 ± 0.02				
	CCN(CCCOc1ccc(/C=C/C(=O)c2c(O)cc(OC)c(OC)c2OC)cc1)Cc1ccccc1OC [Compound 9b, (E)-3-(4-(3-(ethyl(2-methoxybenzyl)amino)propoxy)phenyl)-1-(6-hydroxy-2,3,4-trimethoxyphenyl)prop-2-en-1-one]	> 500	1.62 ± 0.01		71.6 ± 0.01	63.4 ± 0.03	0.67 ± 0.01	0.93 ± 0.01 μM of Trolox equivalent/μM of compounds		55.1 ± 0.22%	8.1 ± 0.03	>746.3	22.2 ± 0.03	19.8 ± 0.22	2.4		
	COc1ccccc1CN(C)CCCCOc1ccc(/C=C/C(=O)c2c(O)cc(OC)c(OC)c2OC)cc1 [Compound 9c, (E)-1-(6-hydroxy-2,3,4-trimethoxyphenyl)-3-(4-(4-((2-methoxybenzyl)(methyl)amino)butoxy)phenyl)prop-2-en-1-one]	> 500	1.5 ± 0.02		74.1 ± 0.02	65 ± 0.01	1.77 ± 0.01	0.97 ± 0.01 μM of Trolox equivalent/μM of compounds		66.6 ± 0.36%	23.6 ± 0.12	>282.5	45.7 ± 0.12	35.7 ± 0.36	1.5		
	COc1ccccc1CN(C)CCCCCCOc1ccc(/C=C/C(=O)c2c(O)cc(OC)c(OC)c2OC)cc1 [Compound 9e, (E)-1-(6-hydroxy-2,3,4-trimethoxyphenyl)-3-(4-(6-((2-methoxybenzyl)(methyl)amino)hexyloxy)phenyl)prop-2-en-1-one]	> 500	1 ± 0.03		76.2 ± 0.04	65.3 ± 0.02	1.68 ± 0.01	0.99 ± 0.02 μM of Trolox equivalent/μM of compounds		77.0 ± 0.57%	2.5 ± 0.01	>297.6	58.2 ± 0.01	37.8 ± 0.57	15.1		
	CCN(CCCCCCOc1ccc(/C=C/C(=O)c2c(O)cc(OC)c(OC)c2OC)cc1)Cc1ccccc1OC [Compound 9f, (E)-3-(4-(6-(ethyl(2-methoxybenzyl)amino)hexyloxy)phenyl)-1-(6-hydroxy-2,3,4-trimethoxyphenyl)prop-2-en-1-one]	> 500	1.78 ± 0.02		75 ± 0.02	69 ± 0.01	0.61 ± 0.01	0.96 ± 0.01 μM of Trolox equivalent/μM of compounds		81.4 ± 0.68%	7.2 ± 0.03	>819.7	62.8 ± 0.03	43.6 ± 0.68	6.1		
	CCN(CC)CCCCOc1ccc(/C=C/C(=O)c2c(O)cc(OC)c(OC)c2OC)cc1 [Compound 10, (E)-3-(4-(4-(diethylamino)butoxy)phenyl)-1-(6-hydroxy-2,3,4-trimethoxyphenyl)prop-2-en-1-one]	> 500	2.72 ± 0.02		49.4 ± 0.02	37.7 ± 0.02	4.94 ± 0.02	1.02 ± 0.01 μM of Trolox equivalent/μM of compounds		26.2% and 26.2 ± 0.28%	14.6 ± 0.03	>101.2	25.6 ± 0.03	27.9 ± 0.28	1.9		
	COc1cc(O)c(C(=O)/C=C/c2ccc(O)cc2)c(OC)c1O [Compound 16, 3′,4,6′-Trihydroxy-2′,4′-dimethoxy-chalcone]	> 500	> 500		38.1 ± 0.01	27.7 ± 0.02	> 500	7.8 ± 0.01 μM of Trolox equivalent/μM of compounds	7.8					15.4 ± 0.16			
	COc1ccccc1CN(C)CCCOc1ccc(/C=C/C(=O)c2c(O)cc(OC)c(O)c2OC)cc1 [Compound 17a, (E)-1-(3,6-dihydroxy-2,4-dimethoxyphenyl)-3-(4-(3-((2-methoxybenzyl)(methyl)amino)propoxy)phenyl)prop-2-en-1-one]	326 ± 10.7	2.3 ± 0.01	18.2	91.1 ± 0.01	67.4 ± 0.04	3.45 ± 0.03	3.1 ± 0.02 μM of Trolox equivalent/μM of compounds		84.6 ± 0.03%		94.5	29.9 ± 0.03			4.4	
56.5 ± 0.21	COc1cc(/C=C/C(=O)CC(=O)/C=C/c2ccc(O)c(OC)c2)ccc1O [Curcumin, reference compound]				76.5 ± 0.02	47.3 ± 0.01											
	COc1cc2c(cc1OC)C(=O)C(CC1CCN(Cc3ccccc3)CC1)C2 (stereo not shown) [Donepezil, reference compound]					< 5											n.a.^g (no active, meaning inhibition rate was <5.0% at 25 μM)
